Source: patent publication US20210261621A1, “Preparation of Dilipid Polymixins and Use Thereof as Antimicrobial Adjuvants” (priority 2018, published 2021)
Several values for one entry are separate records, joined by “and”; a condition that tells them apart may be missing. Identical values can stand only once. Like-named read-outs stand apart in the source and are kept apart here. Positions of bridges follow the written chain, without caps; N, C: chain ends. Non-standard residues stand in square brackets, D forms with d. Residues, ends and D or L forms follow the SMILES beside them. *: point of attachment. Octanoyl = CCCCCCCC(=O)*; Dab = NCC[C@H](N)C(=O)O

How the values were obtained:
P. aeruginosa PAO1 = tested on: P. aeruginosa PAO1; set-up: MICDrug / MICDrug in combo / MIC of adjuvant in combo: unit not given beside the values
P. aeruginosa = experiment: MIC comparison over the P. aeruginosa strains tested; assay type: cell-based, Pseudomonas aeruginosa; conditions: all eleven P. aeruginosa strains tested (Table 2)
From the text: Specifically, addition of another lipid component to the amine side-chain of Dab1 reduced polymyxin's activity against Escherichia coli, P. aeruginosa, Stenotrophomonas maltophilia, A. baumannii, Klebsiella pneumoniae and Enterobacter cloacae. However, the reduction of activity against P. aeruginosa was not as drastic relative to other Gram-negative pathogens. […] We believe that this selectivity for P. aeruginosa is due to differences in exopolysaccharides and lipopolysaccharides between Gram-negative bacteria. This finding may imply the possibility of developing antipseudomonal polymyxins for pathogen-specific therapy.
The in vitro antibacterial activity of the compounds studied were assessed by broth microdilution susceptibility testing following CLSI guidelines. Bacterial cultures were grown overnight prior to the assay. The overnight grown cultures were diluted in saline to 0.5 McFarland turbidity, followed by 1:50 dilution in Mueller-Hinton broth (MHB) for inoculation to a final concentration of approximately 5×10^5 colony forming units/mL. Testing was performed on 96-well plates where the tested compounds were 2-fold serially diluted in MHB and incubated with equal volumes of bacterial inoculum at 37° C. for 18 h. […] Wells containing MHB with or without bacterial cells were used as positive or negative control, respectively.

What does the source list for `CCCCCCCC(=O)NCC[C@H](NC(=O)CCCCCCC)C(=O)N[C@H](C(=O)N[C@@H](CCN)C(=O)N[C@H]1CCNC(=O)[C@H]([C@@H](C)O)NC(=O)[C@H](CCN)NC(=O)[C@H](CCN)NC(=O)[C@H](CC(C)C)NC(=O)[C@@H](Cc2ccccc2)NC(=O)[C@H](CCN)NC1=O)[C@@H](C)O` [Compound 2, Dioctanoic Acid (Di-C8) Polymyxin] (Octanoyl-[Dab](Octanoyl)T[Dab][Dab][Dab][dF]L[Dab][Dab]T; lactam 4-C)?
MIC of adjuvant alone (MIC1, MIC2, MIC3, MIC4, MIC5, MICPMBN) (P. aeruginosa PAO1; adjuvant alone, one value per checkerboard, in µg/mL): 8 and 4; Interpretation (P. aeruginosa PAO1; combination with Aztreonam): Additive (An FIC index of ≤0.5, 0.5<x≤4, or >4 denotes for synergistic, additive or antagonistic interaction, respectively); Interpretation (P. aeruginosa PAO1; combination with Ceftazidime): Additive (An FIC index of ≤0.5, 0.5<x≤4, or >4 denotes for synergistic, additive or antagonistic interaction, respectively); Interpretation (P. aeruginosa PAO1; combination with Chloramphenicol): Synergy (An FIC index of ≤0.5, 0.5<x≤4, or >4 denotes for synergistic, additive or antagonistic interaction, respectively); Interpretation (P. aeruginosa PAO1; combination with Ciprofloxacin): Additive (An FIC index of ≤0.5, 0.5<x≤4, or >4 denotes for synergistic, additive or antagonistic interaction, respectively); Interpretation (P. aeruginosa PAO1; combination with Clindamycin): Synergy (An FIC index of ≤0.5, 0.5<x≤4, or >4 denotes for synergistic, additive or antagonistic interaction, respectively); Interpretation (P. aeruginosa PAO1; combination with Doripenem): Additive (An FIC index of ≤0.5, 0.5<x≤4, or >4 denotes for synergistic, additive or antagonistic interaction, respectively); Interpretation (P. aeruginosa PAO1; combination with Doxycycline): Additive (An FIC index of ≤0.5, 0.5<x≤4, or >4 denotes for synergistic, additive or antagonistic interaction, respectively); Interpretation (P. aeruginosa PAO1; combination with Fosfomycin): Additive (An FIC index of ≤0.5, 0.5<x≤4, or >4 denotes for synergistic, additive or antagonistic interaction, respectively); Interpretation (P. aeruginosa PAO1; combination with Gentamicin): Additive (An FIC index of ≤0.5, 0.5<x≤4, or >4 denotes for synergistic, additive or antagonistic interaction, respectively); Interpretation (P. aeruginosa PAO1; combination with Linezolid): Additive (An FIC index of ≤0.5, 0.5<x≤4, or >4 denotes for synergistic, additive or antagonistic interaction, respectively); Interpretation (P. aeruginosa PAO1; combination with Meropenem): Additive (An FIC index of ≤0.5, 0.5<x≤4, or >4 denotes for synergistic, additive or antagonistic interaction, respectively); Interpretation (P. aeruginosa PAO1; combination with Minocycline): Synergy (An FIC index of ≤0.5, 0.5<x≤4, or >4 denotes for synergistic, additive or antagonistic interaction, respectively); Interpretation (P. aeruginosa PAO1; combination with Moxifloxacin): Additive (An FIC index of ≤0.5, 0.5<x≤4, or >4 denotes for synergistic, additive or antagonistic interaction, respectively); Interpretation (P. aeruginosa PAO1; combination with Novobiocin): Synergy (An FIC index of ≤0.5, 0.5<x≤4, or >4 denotes for synergistic, additive or antagonistic interaction, respectively); Interpretation (P. aeruginosa PAO1; combination with Piperacillin): Additive (An FIC index of ≤0.5, 0.5<x≤4, or >4 denotes for synergistic, additive or antagonistic interaction, respectively); Interpretation (P. aeruginosa PAO1; combination with Pleuromutilin): Additive (An FIC index of ≤0.5, 0.5<x≤4, or >4 denotes for synergistic, additive or antagonistic interaction, respectively); Interpretation (P. aeruginosa PAO1; combination with Rifampicin): Additive (An FIC index of ≤0.5, 0.5<x≤4, or >4 denotes for synergistic, additive or antagonistic interaction, respectively); Interpretation (P. aeruginosa PAO1; combination with Streptomycin): Additive (An FIC index of ≤0.5, 0.5<x≤4, or >4 denotes for synergistic, additive or antagonistic interaction, respectively); Interpretation (P. aeruginosa PAO1; combination with Tobramycin): Additive (An FIC index of ≤0.5, 0.5<x≤4, or >4 denotes for synergistic, additive or antagonistic interaction, respectively); Interpretation (P. aeruginosa PAO1; combination with Trimethoprim): Additive (An FIC index of ≤0.5, 0.5<x≤4, or >4 denotes for synergistic, additive or antagonistic interaction, respectively); Interpretation (P. aeruginosa PAO1; combination with Vancomycin): Additive (An FIC index of ≤0.5, 0.5<x≤4, or >4 denotes for synergistic, additive or antagonistic interaction, respectively); MIC of adjuvant in combo (P. aeruginosa PAO1; in combination with Aztreonam): (4); MIC of adjuvant in combo (P. aeruginosa PAO1; in combination with Ceftazidime): (2); MIC of adjuvant in combo (P. aeruginosa PAO1; in combination with Chloramphenicol): (2); MIC of adjuvant in combo (P. aeruginosa PAO1; in combination with Ciprofloxacin): (4); MIC of adjuvant in combo (P. aeruginosa PAO1; in combination with Clindamycin): (2); MIC of adjuvant in combo (P. aeruginosa PAO1; in combination with Doripenem): (4); MIC of adjuvant in combo (P. aeruginosa PAO1; in combination with Doxycycline): (4); MIC of adjuvant in combo (P. aeruginosa PAO1; in combination with Fosfomycin): (4); MIC of adjuvant in combo (P. aeruginosa PAO1; in combination with Gentamicin): (0.125); MIC of adjuvant in combo (P. aeruginosa PAO1; in combination with Linezolid): (4); MIC of adjuvant in combo (P. aeruginosa PAO1; in combination with Meropenem): (4); MIC of adjuvant in combo (P. aeruginosa PAO1; in combination with Minocycline): (2); MIC of adjuvant in combo (P. aeruginosa PAO1; in combination with Moxifloxacin): (2); MIC of adjuvant in combo (P. aeruginosa PAO1; in combination with Novobiocin): (2); MIC of adjuvant in combo (P. aeruginosa PAO1; in combination with Piperacillin): (4); MIC of adjuvant in combo (P. aeruginosa PAO1; in combination with Pleuromutilin): (2); MIC of adjuvant in combo (P. aeruginosa PAO1; in combination with Rifampicin): (1); MIC of adjuvant in combo (P. aeruginosa PAO1; in combination with Streptomycin): (4); MIC of adjuvant in combo (P. aeruginosa PAO1; in combination with Tobramycin): (0.125); MIC of adjuvant in combo (P. aeruginosa PAO1; in combination with Trimethoprim): (4); MIC of adjuvant in combo (P. aeruginosa PAO1; in combination with Vancomycin): (4); fold lower MIC than colistin (P. aeruginosa): 4-8 fold
